This passage reports EC50 results from US9260395B2, “Inhibitors of viral replication, their process of preparation and their therapeutical uses” (priority 2012, dated 2016).

Each structure is given as a SMILES string. pEC50: −log10 of the molar value.

For this assay, the system named is NL4-3 strain of HIV-1. The experiment in a line: Cyto-protection (CellTiter-Glo viability) assay of MT4 cells infected with NL4-3 virus; inhibition of HIV replication. The assay is classed as cell-based. Particulars: Human immunodeficiency virus 1, NL43, 120 h; concentration leading to 50% of cyto-protection; MT4 cells infected with NL4-3 virus; 5 days incubation; CellTiter-Glo; read-out: EC50. Here is the method: Preparation of Virus stock of the NL4-3 strain of HIV-1 (Adachi et al, J Virol, 1986, 59(2):284-91).
The virus was prepared as described in Lopez et al (Lopez et al, Proc Natl Acad Sci USA., 2006, 103(40):14947-52, by transfecting 2×10^6 293 T cells (CRL-1573, ATCC) with following modifications: 6 μg of NL4-3 proviral DNA molecular clone were mixed with Fugene 6 transfection reagent from Roche, and used according to manufacturer's instructions. Forty eight hours later, transfected cell supernatants were harvested, filtered through 0.45-μm-pore-size filters, quantified for HIV-1 p24 antigen by using a Innotest HIV antigen mAb assay (Ingen) according to manufacturer's instructions, and used in infection experiments.
Serial dilutions of compounds to be tested were prepared in complete RPMI medium from 10 mM DMSO stock solutions, and I in 96 well Falcon 353072 Microtest[…]distributed in a volume of 20™ tissue culture plate, in order to get 0.5% DMSO final concentration in each well, after the addition of infected cells. Control wells contained also 0.5% DMSO final concentration but no compound.
MT4 cells (from the NIH AIDS Research and Reference Reagent Program) in RPMI complete medium were counted (10×10^6 cells per well in Falcon 353047 Multiwell™ 24 well) and infected for 2 hours at 37°, at a multiplicity of infection (moi) of 0.0001-0.00001. Cells were then centrifuged 3 min at 3000 rpm, and washed two times in 1 ml PBS to remove viruses that have not entered in cells. Infected cells were resuspended in complete RPMI at 1.25×10^6 cells/ml and 80 μl of infected cells were distributed in each well containing compound to be tested or control wells. The plates were then incubated at 37° for 5 days.
Assay used to measure the inhibition of HIV replication by the compounds (according to Gregg S. Jones et al., Antimicrobial Agents and Chemotherapy, 2009, 53 (3): 1194-1203).
After 5 days of incubation, microplates were equilibrated to room temperature for 30 mn and then 50 μl of CellTiter-Glo reagent (Promega Biosciences, Inc., Madison Wis., USA) were added to each well. Cell lysis was carried out at room temperature during 10 min, 150μl of lysates were transferred in Packard Optiplate 96 well, and luminescence was read on a Fluoroskan (Thermo Scientific).
The EC50, or effective concentration 50, is the concentration of compound leading to 50% of cyto-protection in a Cell-Titer-Glo® viability assay based on MT4 cells infected with NL4-3 virus (table 1).
By pEC50 is commonly meant the negative decadic logarithm of the EC50, by convention in mol/L. With `Cn1nc(C2=CCCCCC2)c(-c2ccc3c(c2)CCCO3)c1C(OC(C)(C)C)C(=O)O` (stereo not shown) [Example 16, 2-(tert-butoxy)-2-[3-(cyclohept-1-en-1-yl)-4-(3,4-dihydro-2H-1-benzopyran-6-yl)-1-methyl-1H-pyrazol-5-yl]acetic acid], the pEC50 was 6.06.
The result for `Cn1nc(-c2ccsc2)c(C2=CCC(C)(C)CC2)c1C(OC(C)(C)C)C(=O)O` (stereo not shown) [Example 5, 2-(tert-butoxy)-2-[4-(4,4-dimethylcyclohex-1-en-1-yl)-1-methyl-3-(thiophen-3-yl)-1H-pyrazol-5-yl]acetic acid] reads 6.57; that for `CCCc1cc(-c2nn(C)c(C(OC(C)(C)C)C(=O)O)c2-c2ccc3c(c2)CCCO3)cs1` (stereo not shown) [Example 11, 2-(tert-butoxy)-2-[4-(3,4-dihydro-2H-1-benzopyran-6-yl)-1-methyl-3-(5-propylthiophen-3-yl)-1H-pyrazol-5-yl]acetic acid], 6.08.
With `CC1CC=C(c2nn(C)c(C(OC(C)(C)C)C(=O)O)c2-c2ccc3c(c2)CCCO3)CC1` (stereo not shown) [Example 31, 2-(tert-butoxy)-2-[4-(3,4-dihydro-2H-1-benzopyran-6-yl)-1-methyl-3-(4-methylcyclohex-1-en-1-yl)-1H-pyrazol-5-yl]acetic acid], the pEC50 was 5.42.
On to `C/C=C/c1nn(C)c(C(OC(C)(C)C)C(=O)O)c1-c1ccc2c(c1)CCCO2` (stereo not shown) [Example 29, 2-(tert-butoxy)-2-[4-(3,4-dihydro-2H-1-benzopyran-6-yl)-1-methyl-3-[(1E)-prop-1-en-1-yl]-1H-pyrazol-5-yl]acetic acid], for which the pEC50 is 5.85.
As to `Cn1nc(C2CCCCC2)c(-c2ccc3c(c2)CCCO3)c1C(OC(C)(C)C)C(=O)O` (stereo not shown) [Example 20, 2-(tert-butoxy)-2-[3-cyclohexyl-4-(3,4-dihydro-2H-1-benzopyran-6-yl)-1-methyl-1H-pyrazol-5-yl]acetic acid], the pEC50 was 5.85.
The result for `Cn1nc(-c2ccncc2)c(C2=CCC(C)(C)CC2)c1C(OC(C)(C)C)C(=O)O` (stereo not shown) [Example 39, 2-(tert-butoxy)-2-[4-(4,4-dimethylcyclohex-1-en-1-yl)-1-methyl-3-(pyridin-4-yl)-1H-pyrazol-5-yl]acetic acid] reads 5.24; that for `Cn1nc(CC2CCCC2)c(-c2ccc3c(c2)CCCO3)c1C(OC(C)(C)C)C(=O)O` (stereo not shown) [Example 21, 2-(tert-butoxy)-2-[3-(cyclopentylmethyl)-4-(3,4-dihydro-2H-1-benzopyran-6-yl)-1-methyl-1H-pyrazol-5-yl]acetic acid], 5.03.
With `Cn1nc(-c2cc3c(s2)CCC3)c(-c2ccc3c(c2)CCCO3)c1C(OC(C)(C)C)C(=O)O` (stereo not shown) [Example 37, 2-(tert-butoxy)-2-(3-{4H,5H,6H-cyclopenta[b]thiophen-2-yl}-4-(3,4-dihydro-2H-1-benzopyran-6-yl)-1-methyl-1H-pyrazol-5-yl)acetic acid], the pEC50 is 5.48.
Consider `Cn1nc(-c2cccs2)c(C2=CCC(C)(C)CC2)c1C(OC(C)(C)C)C(=O)O` (stereo not shown) [Example 6, 2-(tert-butoxy)-2-[4-(4,4-dimethylcyclohex-1-en-1-yl)-1-methyl-3-(thiophen-2-yl)-1H-pyrazol-5-yl]acetic acid], for which the pEC50 was 6.33.
The result for `Cn1nc(-c2cccs2)c(-c2cc(F)c3c(c2)CCCO3)c1C(OC(C)(C)C)C(=O)O` (stereo not shown) [Example 42, 2-(tert-butoxy)-2-[4-(8-fluoro-3,4-dihydro-2H-1-benzopyran-6-yl)-1-methyl-3-(thiophen-2-yl)-1H-pyrazol-5-yl]acetic acid] reads 5.74; that for `Cn1nc(-c2cccs2)c(-c2ccc3c(c2)CCCO3)c1C(OC(C)(C)C)C(=O)O` (stereo not shown) [Example 3, 2-(tert-butoxy)-2-[4-(3,4-dihydro-2H-1-benzopyran-6-yl)-1-methyl-3-(thiophen-2-yl)-1H-pyrazol-5-yl]acetic acid], 6.54.
The result for `Cn1nc(/C=C/C2CC2)c(-c2ccc3c(c2)CCCO3)c1C(OC(C)(C)C)C(=O)O` (stereo not shown) [Example 27, 2-(tert-butoxy)-2-{3-[(E)-2-cyclopropylethenyl]-4-(3,4-dihydro-2H-1-benzopyran-6-yl)-1-methyl-1H-pyrazol-5-yl}acetic acid] reads 5.28.
